Data taken from patent publication US9693997B2, “Antiviral compounds” (priority 2013, dated 2017).
Structures can show the parent of a compound that is named as a salt. Where two headings read alike, the source gives them in different places.

Assays:
[1] = tested on: Pseudotyped HCV GT1b particles (HCVpp), entry into Huh7-high CD81 cells; experiment: microbe, parasite or virus in culture; assay type: cell-based, HCV GT1b Con1 strain
[2] = tested on: pseudotyped VSV G particles (VSVpp) in Huh7-high CD81 cells; experiment: microbe, parasite or virus in culture; assay type: cell-based, vesicular stomatitis virus
[3] = Hepatitis C virus, GT1B, 72 h, read-out: HCVpp GT-1b (EC50, μM)
[4] = Vesicular stomatitis virus, 72 h, read-out: VSVpp (EC50, μM)

SMILES | EC50 [1, 3] [µM] | EC50 [2, 4] [µM] | EC50 ([1]; read-out: HCVpp GT-1b (EC50)) [µM] | EC50 ([2]; read-out: VSVpp (EC50)) [µM]
CC1(NS(=O)(=O)c2ccc(-c3c(Cl)cc(Nc4n[nH]c(N)n4)cc3C(F)(F)F)cc2)CC1 [Compound 206, 4′-(5-amino-1H-1,2,4-triazol-3-ylamino)-2′-chloro-N-(1-methylcyclopropyl)-6′-(trifluoromethyl)biphenyl-4-sulfonamide] | 0.017 | 9.62 | – | –
CC1(NS(=O)(=O)c2ccc(-c3c(Cl)cc(Nc4n[nH]c(N)n4)cc3C(F)(F)F)cc2)CNC1 [Compound 207, 4′-(5-amino-1H-1,2,4-triazol-3-ylamino)-2′-chloro-N-(3-methylazetidin-3-yl)-6′-(trifluoromethyl)biphenyl-4-sulfonamide hydrochloride] | 0.029 | > 10 | – | –
CC(C)(C)OC(=O)N1CCN(S(=O)(=O)c2ccc(-c3c(Cl)cc(Nc4n[nH]c(N)n4)cc3C(F)(F)F)cc2)C2(CC2)C1 [Compound 208, tert-butyl 4-(4′-(5-amino-1H-1,2,4-triazol-3-ylamino)-2′-chloro-6′-(trifluoromethyl)biphenyl-4-ylsulfonyl)-4,7-diazaspiro[2.5]octane-7-carboxylate] | 0.049 | > 10 | – | –
CN(CCNS(=O)(=O)c1ccc(-c2c(Cl)cc(Nc3n[nH]c(N)n3)cc2C(F)(F)F)cc1)C(=O)OC(C)(C)C [Compound 209, tert-butyl 2-(4′-(5-amino-1H-1,2,4-triazol-3-ylamino)-2′-chloro-6′-(trifluoromethyl)biphenyl-4-ylsulfonamido)ethyl(methyl)carbamate] | 0.005 | 7.09 | – | –
CC(C)N1CC(C)(NS(=O)(=O)c2ccc(-c3c(Cl)cc(Nc4n[nH]c(N)n4)cc3C(F)(F)F)cc2)C1 [Compound 210, 4′-(5-amino-1H-1,2,4-triazol-3-ylamino)-2′-chloro-N-(1-isopropyl-3-methylazetidin-3-yl)-6′-(trifluoromethyl)biphenyl-4-sulfonamide hydrochloride] | 0.021 | 4.41 | – | –
CC(C)N1CC(C)(NS(=O)(=O)c2ccc(-c3c(Cl)cc(Nc4n[nH]c(N)n4)cc3C(F)(F)F)cc2)C1 [Compound 211, 4′-(5-amino-1H-1,2,4-triazol-3-ylamino)-2′-chloro-N-(1-isopropyl-3-methylazetidin-3-yl)-6′-(trifluoromethyl)biphenyl-4-sulfonamide; compound with trifluoro-acetic acid] | – | – | 0.012 | 3.65
COc1ccc(-c2c(Cl)cc(Nc3n[nH]c(N)n3)cc2C(F)(F)F)cc1S(=O)(=O)NC1(C)CN(C(=O)OC(C)(C)C)C1 [Compound 212, tert-butyl 3-(4′-(5-amino-1H-1,2,4-triazol-3-ylamino)-2′-chloro-4-methoxy-6′-(trifluoromethyl)biphenyl-3-ylsulfonamido)-3-methylazetidine-1-carboxylate] | 0.005 | 1.42 | – | –
CNCCNS(=O)(=O)c1ccc(-c2c(Cl)cc(Nc3n[nH]c(N)n3)cc2C(F)(F)F)cc1 [Compound 213, 4′-(5-amino-1H-1,2,4-triazol-3-ylamino)-2′-chloro-N-(2-(methylamino)ethyl)-6′-(trifluoromethyl)biphenyl-4-sulfonamide hydrochloride] | 0.062 | > 10 | – | –
Nc1nc(Nc2cc(Cl)c(-c3ccc(S(=O)(=O)N4CCNCC45CC5)cc3)c(C(F)(F)F)c2)n[nH]1 [Compound 214, N3-(4′-(4,7-diazaspiro[2.5]octan-4-ylsulfonyl)-2-chloro-6-(trifluoromethyl)biphenyl-4-yl)-1H-1,2,4-triazole-3,5-diamine hydrochloride] | 0.048 | 3.36 | – | –
COc1ccc(-c2c(Cl)cc(Nc3n[nH]c(N)n3)cc2C(F)(F)F)cc1S(=O)(=O)NC1(C)CNC1 [Compound 215, 4′-(5-amino-1H-1,2,4-triazol-3-ylamino)-2′-chloro-4-methoxy-N-(3-methylazetidin-3-yl)-6′-(trifluoromethyl)biphenyl-3-sulfonamide hydrochloride] | 0.111 | > 10 | – | –
